In assay [1] the target is Rat recombinant PDE10a (rPDE10a) (Rattus norvegicus (Rat), UniProt Q9QYJ6). As to the kind of experiment: In vitro assay PDE10a (rat recombinant PDE10a, SPA). The assay is classed as biochemical. Particulars: 60 nM cAMP, 60 min at rt, read-out: rPDE10a2 IC50. The protocol: Rat recombinant PDE10a (rPDE10a) was expressed in Sf9 cells using a recombinant rPDE10a baculovirus construct. Cells were harvested after 48 h of infection and the rPDE10a protein was purified by metal chelate chromatography on Ni-sepharose 6FF. Tested compounds were dissolved and diluted in 100% DMSO to a concentration 100 fold of the final concentration in the assay. Compound dilutions (0.4 μL) were added in 384 well plates to 20 μL of incubation buffer (50 mM Tris pH 7.8, 8.3 mM MgCl2, 1.7 mM EGTA). 10 μL of rPDE10a enzyme in incubation buffer was added and the reaction was started by addition of 10 μL substrate to a final concentration of 60 nM cAMP and 0.008 μCi ^3H-cAMP. The reaction was incubated for 60 min at rt. After incubation, the reaction was stopped with 20 μL of 17.8 mg/mL PDE SPA beads. After sedimentation of the beads during 30 min the radioactivity was measured in a Perkin Elmer Topcount scintillation counter and results were expressed as cpm. For blank values the enzyme was omitted from the reaction and replaced by incubation buffer. Control values were obtained by addition of a final concentration of 1% DMSO instead of compound.
Rat recombinant PDE10a (rPDE10a), sequence (Q9QYJ6 whole entry): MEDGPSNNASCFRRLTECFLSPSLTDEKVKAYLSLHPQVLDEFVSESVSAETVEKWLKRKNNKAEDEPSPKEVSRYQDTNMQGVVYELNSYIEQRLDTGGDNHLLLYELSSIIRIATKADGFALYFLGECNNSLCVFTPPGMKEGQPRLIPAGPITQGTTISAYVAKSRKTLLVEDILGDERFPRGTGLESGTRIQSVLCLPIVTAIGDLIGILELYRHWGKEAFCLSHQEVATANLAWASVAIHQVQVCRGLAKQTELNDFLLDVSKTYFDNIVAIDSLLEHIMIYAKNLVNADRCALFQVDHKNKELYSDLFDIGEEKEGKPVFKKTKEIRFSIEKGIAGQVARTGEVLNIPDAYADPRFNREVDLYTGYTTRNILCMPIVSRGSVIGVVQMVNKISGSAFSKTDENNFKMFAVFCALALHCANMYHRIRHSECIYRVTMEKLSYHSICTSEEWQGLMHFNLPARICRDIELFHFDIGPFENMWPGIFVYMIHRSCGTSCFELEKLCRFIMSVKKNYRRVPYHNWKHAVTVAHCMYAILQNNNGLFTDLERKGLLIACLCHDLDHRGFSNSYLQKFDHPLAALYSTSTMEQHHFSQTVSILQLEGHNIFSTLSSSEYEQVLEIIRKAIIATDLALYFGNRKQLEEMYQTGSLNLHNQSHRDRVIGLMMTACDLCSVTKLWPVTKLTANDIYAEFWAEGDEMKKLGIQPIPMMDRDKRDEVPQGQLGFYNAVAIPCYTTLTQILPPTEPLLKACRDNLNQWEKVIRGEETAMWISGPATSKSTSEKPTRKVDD

The target of assay [2] is Human recombinant PDE10A2 (Homo sapiens (Human), UniProt Q9Y233). As to the kind of experiment: In vitro hPDE10a (human recombinant PDE10A2, scintillation proximity assay). Type of assay: biochemical. The note with it: human recombinant PDE10A2, 60 nM cAMP, 60 min at room temperature; read-out: hPDE10a2 IC50. As for the experimental part:
Human recombinant PDE10A2 was expressed in Sf9 cells, using a recombinant baculovirus construct containing the full length sequence containing a 6×His sequence following the start Met to allow metal affinity purification of the recombinant protein. Cells were harvested and the phosphodiesterase protein was purified by metal chelate chromatography on Ni-sepharose 6FF.
The affinity of the compounds of Formula (I) for phophodiesterases (PDE) was measured by a scintillation proximity assay (SPA). PDE Yttrium Silicate SPA beads allow PDE activity to be measured by direct binding of the primary phosphate groups of non-cyclic AMP or GMP to the beads via a complex iron chelation mechanism. The amount of bound tritiated product ([^3H]-AMP) is measured by liquid scintillation counting.
The compounds were dissolved and diluted in 100% DMSO in polystyrene plates to a concentration of 100-fold the final concentration in the assay. Human PDE10A enzyme solution (10 μL) was added to 20 μL, of incubation buffer (50 mM Tris pH 7.8, 8.3 mM MgCl2, 1.7 mM EGTA), 10 μL, substrate solution consisting of a mixture of non-tritiated and tritiated substrate (60 nM cAMP, 0.008 μCi ^3H-cAMP), and 0.4 μL, compound in 100% DMSO in a 384-well plate, and incubated for 60 min at room temperature. After incubation, the reaction was stopped with 20 μL, of stop solution, consisting of PDE SPA beads (17.8 mg beads/mL in 18 mM zinc sulphate). After sedimentation of the beads for 30 min, the radioactivity was measured in a Perkin Elmer Topcount scintillation counter and results were expressed as cpm. To measure the low control, no enzyme was added to the reaction mixture.
Data were calculated as the percentage of inhibition of total activity measured in the absence of test compound (% control).

Consider 22 molecules from US9249163B2, “PDE10a inhibitors for the treatment of type II diabetes” (Janssen Pharmaceutica, NV, priority 2013, dated 2016).

Where a name gives a salt, the structure may show the parent alone.

Human recombinant PDE10A2, sequence (Q9Y233 267-1055): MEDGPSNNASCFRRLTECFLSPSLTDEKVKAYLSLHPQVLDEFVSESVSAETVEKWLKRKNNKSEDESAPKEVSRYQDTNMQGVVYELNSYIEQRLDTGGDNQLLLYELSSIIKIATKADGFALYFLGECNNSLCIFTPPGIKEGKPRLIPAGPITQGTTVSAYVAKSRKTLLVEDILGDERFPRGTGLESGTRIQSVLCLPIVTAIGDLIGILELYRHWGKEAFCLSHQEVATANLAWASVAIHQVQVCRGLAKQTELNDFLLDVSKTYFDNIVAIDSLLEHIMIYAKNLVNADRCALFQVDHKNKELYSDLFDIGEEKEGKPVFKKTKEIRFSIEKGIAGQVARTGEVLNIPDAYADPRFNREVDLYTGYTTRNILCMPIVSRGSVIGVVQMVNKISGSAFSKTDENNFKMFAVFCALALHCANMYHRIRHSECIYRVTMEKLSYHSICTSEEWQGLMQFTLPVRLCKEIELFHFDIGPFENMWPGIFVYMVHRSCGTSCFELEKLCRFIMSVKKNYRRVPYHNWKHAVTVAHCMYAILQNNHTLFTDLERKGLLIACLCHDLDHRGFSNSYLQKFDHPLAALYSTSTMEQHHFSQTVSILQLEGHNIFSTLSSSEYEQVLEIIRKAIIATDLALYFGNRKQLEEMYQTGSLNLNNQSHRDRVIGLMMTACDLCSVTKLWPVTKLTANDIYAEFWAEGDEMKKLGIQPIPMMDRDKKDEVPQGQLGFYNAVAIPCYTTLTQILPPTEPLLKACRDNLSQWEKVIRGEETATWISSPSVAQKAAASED

With `O=C(O)CNc1ccc(-c2cnc(N3CCOCC3)c3nc(/C=C/c4ccc5ccccc5n4)cn23)cc1` [Cpd 29, (E)-2-(4-(8-Morpholino-2-(2-(quinolin-2-yl)vinyl)imidazo[1,2-a]pyrazin-5-yl)phenylamino)acetic acid trifluoroacetic acid salt], the results for the IC50 in assay [1] and in assay [2] were 15 nM and 24 nM, respectively.
Consider `COCCOCCOc1ccc(-c2cnc(N3CCOCC3)c3nc(CCc4ccc5ccccc5n4)cn23)cc1` [Cpd 31, 4-(5-(4-(2-(2-Methoxyethoxy)ethoxy)phenyl)-2-(2-(quinolin-2-yl)ethyl)imidazo[1,2-a]pyrazin-8-yl)morpholine], for which the IC50 was determined as 115 nM in assay [1] and 1 nM in assay [2].
For `O=C(O)CCC(=O)Nc1ccc(-c2cnc(N3CCOCC3)c3nc(/C=C/c4ccc5ccccc5n4)cn23)cc1` [Cpd 32], the IC50 in assay [1] was 6 nM; in assay [2], 12 nM.
In the same order, the values of `Cn1nc(-c2ccc(-c3cnc(N4CCOCC4)c4nc(CCc5ccc6ccccc6n5)cn34)cc2)[nH]c1=O` [Cpd 33, 1-Methyl-3-[4-[8-(morpholin-4-yl)-2-[2-(quinolin-2-yl)ethyl]imidazo[1,2-a]pyrazin-5-yl]phenyl]-4,5-dihydro-1H-1,2,4-triazol-5-one] are 23 nM and 21 nM.
`CC(C)[C@H](NC(=O)c1ccc(-c2cnc(N3CCOCC3)c3nc(CCc4ccc5ccccc5n4)cn23)cc1)C(=O)O` [Cpd 34, (S)-3-Methyl-2-(4-(8-morpholino-2-(2-(quinolin-2-yl)ethyl)imidazo[1,2-a]pyrazin-5-yl)benzamido)butanoic acid trifluoroacetic acid salt]: the concentration for half-maximal inhibition (IC50) turned out to be 13 nM in assay [1] and 5 nM in assay [2].
For `O=C(O)[C@@H]1CCCN1C(=O)c1ccc(-c2cnc(N3CCOCC3)c3nc(CCc4ccc5ccccc5n4)cn23)cc1` [Cpd 35, (S)-1-(4-(8-Morpholino-2-(2-(quinolin-2-yl)ethyl)imidazo[1,2-a]pyrazin-5-yl)benzoyl)pyrrolidine-2-carboxylic acid trifluoroacetic acid salt], the IC50 was determined as 12 nM in assay [1] and 7 nM in assay [2].
Regarding `c1ccc2nc(CCc3cn4c(-c5ccc(Sc6cnn[nH]6)cc5)cnc(N5CCOCC5)c4n3)ccc2c1` [Cpd 36, 4-(5-(4-((1H-1,2,3-triazol-5-yl)thio)phenyl)-2-(2-(quinolin-2-yl)ethyl)imidazo[1,2-a]pyrazin-8-yl)morpholine], the IC50 in assay [1] worked out at 23 nM; in assay [2], 17 nM.
For `O=C(O)CCNC(=O)c1ccc(-c2cnc(N3CCOCC3)c3nc(CCc4ccc5ccccc5n4)cn23)cc1` [Cpd 38, 3-(4-(8-Morpholino-2-(2-(quinolin-2-yl)ethyl)imidazo[1,2-a]pyrazin-5-yl)benzamido)propanoic acid], in that order: 7 nM and 2 nM.
Regarding `O=C(O)CCNC(=O)c1ccc(-c2cnc(N3CCOCC3)c3nc(/C=C/c4ccc5ccccc5n4)cn23)cc1` [Cpd 39, (E)-3-(4-(8-Morpholino-2-(2-(quinolin-2-yl)vinyl)imidazo[1,2-a]pyrazin-5-yl)benzamido)propanoic acid], the results for the IC50 in assay [1] and in assay [2] were 8 nM and 5 nM, respectively.
In the case of `CS(=O)(=O)NC(=O)Nc1ccc(-c2cnc(N3CCOCC3)c3nc(CCc4ccc5ccccc5n4)cn23)cc1` [Cpd 40, N-((4-(8-Morpholino-2-(2-(quinolin-2-yl)ethyl)imidazo[1,2-a]pyrazin-5-yl)phenyl)carbamoyl)methanesulfonamide], the IC50 was 20 nM in assay [1] and 10 nM in assay [2].
Regarding `COCOc1c(C)cc(-c2cnc(N3CCOCC3)c3nc(/C=C/c4ccc5ccccc5n4)cn23)cc1C` [Cpd 41, (E)-4-(5-(4-(methoxymethoxy)-3,5-dimethylphenyl)-2-(2-(quinolin-2-yl)vinyl)imidazo[1,2-a]pyrazin-8-yl)morpholine], the IC50 in assay [1] is 21 nM; in assay [2], 19 nM.
In the same order, the values of `O=C1NS(=O)(=O)c2ccc(-c3cnc(N4CCOCC4)c4nc(/C=C/c5ccc6ccccc6n5)cn34)cc21` [Cpd 42, (E)-5-(8-Morpholino-2-(2-(quinolin-2-yl)vinyl)imidazo[1,2-a]pyrazin-5-yl)benzo[d]isothiazol-3(2H)-one 1,1-dioxide] are 2 nM and 1 nM.
For `CN1c2cc(-c3cnc(N4CCOCC4)c4nc(/C=C/c5ccc6ccccc6n5)cn34)ccc2NS1(=O)=O` [Cpd 43, (E)-1-Methyl-6-(8-morpholino-2-(2-(quinolin-2-yl)vinyl)imidazo[1,2-a]pyrazin-5-yl)-1,3-dihydrobenzo[c][1,2,5]thiadiazole 2,2-dioxide trifluoroacetic acid salt], the values for the IC50 in assay [1] and in assay [2] were 7 nM and 3 nM, respectively.
For `CC(C)[C@H](NC(=O)c1ccc(-c2cnc(N3CCOCC3)c3nc(/C=C/c4ccc5ccccc5n4)cn23)cc1)C(=O)O` [Cpd 44, (S,E)-3-Methyl-2-(4-(8-morpholino-2-(2-(quinolin-2-yl)vinyl)imidazo[1,2-a]pyrazin-5-yl)benzamido)butanoic acid trifluoroacetic acid salt], in that order: 9 nM and 14 nM.
Take `O=C(O)[C@@H]1CCCN1C(=O)c1ccc(-c2cnc(N3CCOCC3)c3nc(/C=C/c4ccc5ccccc5n4)cn23)cc1` [Cpd 45, (S,E)-1-(4-(8-Morpholino-2-(2-(quinolin-2-yl)vinyl)imidazo[1,2-a]pyrazin-5-yl)benzoyl)pyrrolidine-2-carboxylic acid trifluoroacetic acid salt]: the IC50 in assay [1] worked out at 23 nM; in assay [2], 20 nM.
On to `O=C(O)CNC(=O)c1ccc(-c2cnc(N3CCOCC3)c3nc(CCc4ccc5ccccc5n4)cn23)cc1` [Cpd 46, 2-(4-(8-Morpholino-2-(2-(quinolin-2-yl)ethyl)imidazo[1,2-a]pyrazin-5-yl)benzamido)acetic acid], for which the IC50 was determined as 4 nM in assay [1] and 7 nM in assay [2].
In the same order, the values of `Cn1nc(-c2ccc(-c3cnc(N4CCOCC4)c4nc(/C=C/c5ccc6ccccc6n5)cn34)cc2)[nH]c1=O` [Cpd 47, (E)-2-Methyl-5-(4-(8-morpholino-2-(2-(quinolin-2-yl)vinyl)imidazo[1,2-a]pyrazin-5-yl)phenyl)-2H-1,2,4-triazol-3(4H)-one] are 15 nM and 34 nM.
Regarding `O=C1NC(=O)C(c2ccc(-c3cnc(N4CCOCC4)c4nc(/C=C/c5ccc6ccccc6n5)cn34)cc2)O1` (centres unmarked) [Cpd 48, (E)-5-(4-(8-Morpholino-2-(2-(quinolin-2-yl)vinyl)imidazo[1,2-a]pyrazin-5-yl)phenyl)oxazolidine-2,4-dione], the IC50 in assay [1] came out at 37 nM; in assay [2] it was 11 nM.
Turning to `Cc1cc(S(=O)(=O)NC(C)C)ccc1-c1cnc(N2CCOCC2)c2nc(/C=C/c3ccc4ccccc4n3)cn12` [Cpd 49, (E)-N-isopropyl-3-methyl-4-(8-morpholino-2-(2-(quinolin-2-yl)vinyl)imidazo[1,2-a]pyrazin-5-yl)benzenesulfonamide], the IC50 in assay [1] worked out at 98 nM; in assay [2], 155 nM.
Take `O=C(O)CNC(=O)c1ccc(-c2cnc(N3CCOCC3)c3nc(/C=C/c4ccc5ccccc5n4)cn23)cc1` [Cpd 50, (E)-2-(4-(8-Morpholino-2-(2-(quinolin-2-yl)vinyl)imidazo[1,2-a]pyrazin-5-yl)benzamido)acetic acid]: the figures for the IC50 in assay [1] and in assay [2] were 17 nM and 18 nM, respectively.
For `Oc1ncn(-c2ccc(-c3cnc(N4CCOCC4)c4nc(CCc5ccc6ccccc6n5)cn34)cc2)n1` [Cpd 51, 1-(4-(8-Morpholino-2-(2-(quinolin-2-yl)ethyl)imidazo[1,2-a]pyrazin-5-yl)phenyl)-1H-1,2,4-triazol-3-ol], in that order: 5 nM and 4 nM.
In the same order, the values of `O=C1NS(=O)(=O)c2cc(-c3cnc(N4CCOCC4)c4nc(CCc5ccc6ccccc6n5)cn34)ccc21` [Cpd 54, 6-(8-Morpholino-2-(2-(quinolin-2-yl)ethyl)imidazo[1,2-a]pyrazin-5-yl)benzo[d]isothiazol-3(2H)-one 1,1-dioxide trifluoroacetic acid salt] are 1 nM and 1 nM.
